Results as given in patent publication US11214556B1, “Method of treating colorectal cancer” (King Abdulaziz University, priority 2019, dated 2022).
“Also recorded” adds a separate entry of the source.

What was measured:
HCT-116 cells [1] = experiment: SRB cytotoxicity assay, HCT-116; format: cell-based, human; conditions: for IC50: Homo sapiens, HCT-116, SRB assay, 72 h exposure, ± SEM
Experimental: Compounds in this study were tested against colorectal cancer cell line HCT-116, using sulforhodamine-B (SRB) assay. See Skehan, P.; Storeng, R.; Scudiero, D.; Monks, A.; McMahon, J.; Vistica, D.; Warren, J. T.; Bokesch, H.; Kenney, S.; Boyd, M. R., New colorimetric cytotoxicity assay for anticancer-drug screening. J Natl Cancer Inst 1990, 82 (13), 1107-12, incorporated herein by reference in its entirety. […] However, it was clear that compounds bearing hydrophobic aliphatic groups such as MOS-1505 and MOS-1512 are clearly favored in providing anticancer activities. […] The N-aryl substituents were less advantageous in both potency and solubility.
(§1) Different cell lines were originally purchased from American type culture collection (ATCC, Wesel, Germany) and grown in the tissue culture lab of the Egyptian company for production of vaccines, sera and drugs (Vacsera, Giza, Egypt). The cells were transferred to our laboratory and maintained in the appropriate media as following. HCT-116, CACO-2, and HT-29 (human colon cancer cell lines) were maintained in Roswell Park Memorial Institute medium (RPMI1640) (Invitrogen, Carlsbad, Calif.). The mouse skin fibroblasts (C-166) and Baby Hamster Kidney fibroblasts (BHK) were grown in Dulbecco Modified Eagle's medium (DMEM). Both media were supplemented with 1% of […] of streptomycin, 100 units/mL of penicillin and 10% of heat-inactivated fetal bovine serum (Invitrogen, Carlsbad, Calif.) in a humidified, 5% (v/v) CO2 atmosphere at 37° C.
(§2) The sulforhodamine B (SRB) assays were performed according to Skehan, P.; Storeng, R.; Scudiero, D.; Monks, A.; McMahon, J.; Vistica, D.; Warren, J. T.; Bokesch, H.; Kenney, S.; Boyd, M. R., New colorimetric cytotoxicity assay for anticancer-drug screening. J Natl Cancer Inst 1990, 82 (13), 1107-12, incorporated herein by reference in its entirety. Briefly, exponentially growing cells were trypsinized, counted and seeded at the appropriate densities (5000 cells/100 μL/well) into 96-well microtiter plates. Cells were incubated in a humidified atmosphere at 37° C. for 24 h. Then, the cells were exposed to different compounds at the desired concentrations, (0.01, 0.1, 1, 10, and 100 μM) or to 1% dimethyl sulfoxide (DMSO) for 72 h. At the end of the treatment period, the media were removed, and the cells were fixed with 10% trichloroacetic acid at 4° C. for 1 hr. Following, the cells were washed with tap water four times and incubated with SRB 0.4% for 30 min. Excess dye was removed by washing repeatedly with 1% (vol/vol) acetic acid. The protein-bound dye was dissolved in 10 mM Tris base solution for (optical density) OD determination at 510 nm using a SpectraMax plus Microplate Reader (Molecular Devices, CA). Cell viability was expressed relative to the untreated control cells.

[2] = Acute oral toxicity (LD50), OECD guideline 423; format: in vivo; conditions: both sexes, Swiss albino, mouse, in vivo, po
Source text: (§3) Since compounds with electrophilic properties, e.g., MA are usually involved in a variety of toxic effects on mammalians, the general acute toxicity of 1512, 3712 and 4112 was investigated by determining the in vivo lethal dose (LD50) according to the Globally Harmonized Classification System (GHS) and following the Organization for Economic Cooperation and Development (OECD) guideline 423 (modified, adopted Mar. 23, 2006). As observed in the cellular assay, the compound safety was confirmed, as the LD50 for all compounds were between 2000-5000 mg/kg (Category 5). See Spielmann, H.; Genschow, E.; Liebsch, M.; Halle, W., Determination of the starting dose for acute oral toxicity (LD50) testing in the up and down procedure (UDP) from cytotoxicity data. ATLA 1999, 27 (6), 957-966, incorporated herein by reference in its entirety.
(§4) The experiment was conducted on 12 healthy Swiss albino mice (males and females) weighing 22-27 g and aged 8 to 10 weeks obtained from the Animal Station, Pharmacology Dept, Faculty of Pharmacy, King Abdulaziz University, Jeddah. See Shoieb, S. M.; Esmat, A.; Khalifa, A. E.; Abdel-Naim, A. B., Chrysin attenuates testosterone-induced benign prostate hyperplasia in rats. Food and Chemical Toxicology 2018, 111, 650-659, incorporated herein by reference in its entirety. All animals were kept at the regulated temperature (average 23° C.), air quality (Central air conditioning) and light (12-h light/dark cycles). Animals were provided free access to food pellets ad libitum and water. The experimental procedure was approved by the Research Ethics Committee, Faculty of Pharmacy, King Abdulaziz University prior to starting the laboratory work. Animals were humanely treated according to international and scientific principles. Changes other than vitality of the animals such as behavioral and food consumption habits were not observed in this study.
(§5) The compounds 1512, 3712 and 4112 of purity 95% or more (LC/MS) were prepared for this study as 10% suspension in water containing 0.5% tween 80.
(§6) The animals were distributed randomly into four groups (3 mice at each group). […] The second group received an oral dose of 2000 mg/Kg of the drug and observed after 24 h to count the deceased animals. According to the Guideline 423, when all animals were found alive, the same test was repeated (dose 2000 mg/kg) were given to the third group (3 animals) and observed for 24 h. All animals survived and therefore, a dose of 5000 mg/kg were administered to the fourth and final group.

Swiss albino mice = experiment: Acute oral toxicity (LD50), OECD guideline 423; format: in vivo; conditions: both, Swiss albino, mouse, in vivo, po, 24 h
Source text: as §3, §4, §5, §6

[3] = system: C-166 mouse skin fibroblasts; experiment: Selectivity versus normal C-166 fibroblasts; format: cell-based; conditions: HCT-116, Caco-2 and HT-29 versus C-166
Source text: FIG. 3A is a graph illustrating the dose-response curve of compound 1512 on HCT-116 cell lines and C-166 cell line;
See El-Araby, M. E.; Omar, A. M.; Khayat, M. T.; Assiri, H. A.; Al-Abd, A. M., Molecular Mimics of Classic P-Glycoprotein Inhibitors as Multidrug Resistance Suppressors and Their Synergistic Effect on Paclitaxel. PLoS One 2017, 12 (1), e0168938, incorporated herein by reference in its entirety.
Different cell lines were originally purchased from American type culture collection (ATCC, Wesel, Germany) and grown in the tissue culture lab of the Egyptian company for production of vaccines, sera and drugs (Vacsera, Giza, Egypt). The cells were transferred to our laboratory and maintained in the appropriate media as following. […]
The sulforhodamine B (SRB) assays were performed according to Skehan, P.; Storeng, R.; Scudiero, D.; Monks, A.; McMahon, J.; Vistica, D.; Warren, J. T.; Bokesch, H.; Kenney, S.; Boyd, M. R., New colorimetric cytotoxicity assay for anticancer-drug screening. […] Briefly, exponentially growing cells were trypsinized, counted and seeded at the appropriate densities (5000 cells/100 μL/well) into 96-well microtiter plates. […] The protein-bound dye was dissolved in 10 mM Tris base solution for (optical density) OD determination at 510 nm using a SpectraMax plus Microplate Reader (Molecular Devices, CA). […]

Solubility profile = format: physicochemical; conditions: stated in words together with C log P
HT-29 cells = experiment: SRB cytotoxicity assay, HT-29; format: cell-based, human; conditions: Homo sapiens, HT-29, monolayer, 72 h exposure, ± SEM
Source text: (§7) Based on the favorable pharmacologic and physicochemical properties of MOS-1512, it was selected as a new lead for the second subset of compounds (MOS-1812 to MOS-5112). The compounds in this series contained variable groups at R^1 and R^2 that were all tested against the three cancer cell lines (HCT-116, Caco-2 and HT-29).
as §1, §2

HCT-116 cells [4] = experiment: Nuclear fragmentation by DAPI staining; format: cell-based, human; conditions: 32 μM (IC50 concentration), 48 hours
Experimental: Several assays were performed to determine the apoptotic effect of the early lead MOS-1512 as well as the potent derivative MOS-4112 on HCT-116 cells. […] See Drutovic, D.; Chripkova, M.; Pilatova, M.; Kruzliak, P.; Perjesi, P.; Sarissky, M.; Lupi, M.; Damia, G.; Broggini, M.; Mojzis, J., Benzylidenetetralones, cyclic chalcone analogues, induce cell cycle arrest and apoptosis in HCT116 colorectal cancer cells. Tumour Biol 2014, 35 (10), 9967-75, incorporated herein by reference in its entirety.
Cells were cultured on sterile 22 mm^2 cover slips (Harvard Apparatus, MA, USA) in sterile six well plates at a density of 2×10^5 cells/well. […] The fixed and permeabilized cells nuclei were denatured with 2 N HCl (300 μl) for 10 min, washed three times more, and treated with 0.1 μg/ml 4′,6′-diamidino-2-phenylindole, dihydrochloride (DAPI) (Sigma-Aldrich, St. Louis, Mo., USA) (1:1000) in (phosphate-buffered saline-Tween 20 (PBST) for 1 hr. After staining, the cells were washed twice with PBS. The cover slips were then mounted on a glass slide with anti-fade mounting medium and viewed with an epifluorescence microscope, Leica, DM 5500 B (Leica, Buffalo Grove, Ill., USA) at a magnification of 60×, and data were captured digitally and quantified using the microscope provided software.

CACO-2 cells = experiment: SRB cytotoxicity assay, CACO-2; format: cell-based, human; conditions: Homo sapiens, Caco-2, 72 h exposure, ± SEM
Source text: as §7, §1, §2

[5] = system: CRC cell lines (HCT-116, Caco-2 and HT-29); experiment: Cytotoxic activities against CRC cell lines (statement over three lines); format: cell-based; conditions: Homo sapiens
Source text: as §7, §1, §2

[6] = system: HT-29 colon cancer cell spheroids (cancer stem cells); experiment: Primary (1°) colonosphere formation assay; format: cell-based, human
Experimental: Compound 4112 and another potent compound 3712 were also evaluated for their ability to inhibit cancer stem cell proliferation using a primary (1°) colonosphere formation assay. In this assay, HT-29 colon cancer cells were grown in low adhesion plates to form spheres as previously described. See Patel, N. J.; Karuturi, R.; Al-Horani, R. A.; Baranwal, S.; Patel, J.; Desai, U. R.; Patel, B. B., Synthetic, non-saccharide, glycosaminoglycan mimetics selectively target colon cancer stem cells. ACS Chem Biol 2014, 9 (8), 1826-33, incorporated herein by reference in its entirety. Wells treated with the inventive compounds were compared to vehicle treated cells for primary sphere growth inhibition after 5 days of incubation. […] Of note, monolayer growth conditions are ideally suited for examining cellular proliferation, whereas spheroid growth conditions examine cancer stem cell growth and self-renewal properties.
For primary sphere formation, cells were plated in nontreated, low adhesion, 96 wells plate at the concentration of 100 cells/100 μL/well in stem cell media (SCM) that consisted of DMEM:F12:AA (Gibco), supplemented with 1×B27 (Gibco), 20 ng/mL epidermal growth factor, and 10 ng/mL fibroblast growth factor (Sigma). After 4 h of incubation, vehicle (control) or 3712 and 4112 at the desired concentrations were added to each well (at least in triplicates for each sample). On day five, numbers of spheres ranging from […] in diameter were counted using phase contrast microscope and percent inhibition was calculated compared to control.

Row | SMILES | melting point | IC50 (HCT-116 cells [1]) [µM] | IC50 (HT-29 cells) [µM] | IC50 (CACO-2 cells) [µM] | IC50 [5] [µM] | further results
1 | O=C(/C=C/c1ccccc1)N/C(=C\c1ccccc1)C(=O)Nc1cccnc1 [Compound 1507, (Z)-2-[(E)-cinnamamido]-3-phenyl-N-(3-pyridyl)acrylamide] | > 250 °C (dec.) | > 100 |  |  |  | 
2 | O=C(/C=C/c1ccccc1)N/C(=C\c1ccccc1)C(=O)NCCO [Compound 1532, (Z)-2-[(E)-cinnamamido]-N-(2-hydroxyethyl)-3-phenyl-acrylamide] | 204 °C | > 100 |  |  |  | 
3 | CCCNC(=O)/C(=C/c1ccccc1)NC(=O)/C=C/c1ccccc1 [Compound 1512, (Z)-2-[(E)-cinnamamido]-3-phenyl-N-propylacrylamide] |  | 32 ± 2.6 | 35.5 ± 1.7 | 38 ± 0.87 |  | LD50 at 24 h [2]: 2000 to 5000 mg/kg; GHS acute toxicity category (Swiss albino mice): Category 5; selectivity in killing cancer cells versus normal cells [3]: high selectivity; solubility (Solubility profile): better solubility profile; cancer cell resistance (R-value) (HCT-116 cells [1]; dose-response curve, FIG. 3A): 8.2%; nuclear structure/morphology, DAPI staining (HCT-116 cells [4]): very strong blue fluorescence; also recorded: nuclear condensation and fragmentation
4 | O=C(C=Cc1ccccc1)N/C(=C\c1ccccc1)C(=O)NC12CC3CC(CC(C3)C1)C2 [Compound 1505, (Z)—N-(1-adamantanyl)-2-cinnamamido-3-phenylacrylamide] |  | 14.7 ± 0.3 |  |  |  | solubility (Solubility profile): poor solubility
5 | CCOC(=O)/C(=C/c1ccccc1)NC(=O)C=Cc1ccccc1 [Compound 15EE, Ethyl (Z)-2-cinnamamido-3-phenylacrylate] | 153 °C |  |  |  |  | 
6 | CCCNC(=O)/C(=C/c1c[nH]c2ccccc12)NC(=O)/C=C/c1ccc(Cl)cc1 [Compound 3812, (Z)-2-[(E)-3-(4-chlorophenyl)acrylamido]-3-(1H-indol-3-yl)-N-propylacrylamide] |  | 3.51 ± 0.21 | 3.41 ± 0.03 | 3.35 ± 0.05 | < 5 | 
7 | CCCNC(=O)/C(=C/c1c[nH]c2ccccc12)NC(=O)C=Cc1ccccc1 [Compound 3712, (Z)-2-cinnamamido-3-(1H-indol-3-yl)-N-propylacrylamide] |  | 1.65 ± 0.05 | 2.36 ± 0.04 | 2.1 ± 0.03 | < 5 | LD50 at 24 h [2]: 2000 to 5000 mg/kg; GHS acute toxicity category (Swiss albino mice): Category 5; IC50 ([6]; Homo sapiens, 120 h, HT-29 spheres, 5 days of incubation): 21.1 ± 1.3 µM; inhibition of colon cancer spheroids formation ([6]; spheroids >50 μm, 5 days): dose-dependent inhibition
8 | O=C(C=Cc1ccccc1)N/C(=C\c1ccccc1)C(=O)NC1CCCC1 [Compound 1503, (Z)-2-cinnamamido-N-cyclopentyl-3-phenylacrylamide] | 239 °C | 48.5 ± 3.1 |  |  |  | 
9 | CCCNC(=O)/C(=C/c1ccc(N(C)C)cc1)NC(=O)/C=C/c1ccc(Cl)cc1 [Compound 2812, (Z)-2-[(E)-3-(4-chlorophenyl)acrylamido]-3-[4-(dimethylamino)phenyl]-N-propylacrylamide] |  | 20.7 ± 0.32 | 9.52 ± 0.42 | 17 ± 0.8 | < 5 | 
